Measurements published in patent publication US8895585B2, “Nicotinamide derivative or salt thereof” (FUJIFILM Corporation, priority 2010, dated 2014).

Legend:
[1] = test system: female Lewis rats; experiment: Rat type-II-collagen-induced arthritis; type: in vivo; details: oral administration at 10 mg/kg/day, once daily Day 7 to Day 20, hindlimb volume by plethysmometer, read-out: inhibition of hindlimb swelling compared with the control group
Description: The compounds were tested to examine effects upon rat type II collagen arthritis. To 3 mg/mL bovine type II collagen solution (Collagen Gijutsu Kenshu-Kai) dissolved in 0.05 mol/L acetic acid, an equal amount of Freund's incomplete adjuvant (Wako Pure Chemical Industries, Ltd.) was added to prepare an emulsion. A portion of the emulsion (0.5 ml) was intradermally injected into the tail bases of 7- or 8-week-old female Lewis rats (Charles River Laboratories Japan, Inc.) (Day 0). Each rat was subjected to the same treatment on Day 7 after the initial inoculation so as to induce arthritis. Each test compound was orally administered from Day 7 to Day 20 once daily. At a given time during the period from Day 7 to Day 21, the rat hindlimb volume was determined using a plethysmometer (UGO BASILE), and the result was designated as an arthritis index. The following compound group inhibited hindlimb swelling by 85% or greater compared with the control group in the case of oral administration at 10 mg/kg/day: the compounds of Example 4-17, Example 6-49, Example 6-117, Example 6-157, Example 6-249, Example 6-322, Example 6-375, and Example 6-395.

[2] = test system: male DBA/1J mice; experiment: Mouse type-II collagen-induced arthritis (prophylactic and therapeutic administration test); type: in vivo; details: prophylactic administration test, once daily Day 21 to Day 34, 1 to 30 mg/kg/day
Description: The compounds synthesized in Example 8-1, Example 4-17, and Example 6-49 were tested to examine effects upon mouse type II collagen arthritis. To 2 mg/mL bovine type II collagen solution (Koken Co., Ltd.) dissolved in 0.1 mol/L acetic acid, an equal amount of Freund's complete adjuvant (Wako Pure Chemical Industries, Ltd.) was added to prepare an emulsion. A portion of the emulsion was intradermally injected into the tail bases of 7- or 8-week-old male DBA/1J mice (Charles River Laboratories Japan, Inc.) at a dose of 0.2 mL per mouse (antigen amount: 0.2 mg/mouse) on Day 0 and Day 21 twice, so as to induce arthritis. Each compound was administered once daily from Day 21 to Day 34 in the prophylactic administration test (1 to 30 mg/kg/day), and administered once daily from Day 27 to Day 35 in the therapeutic administration test (25 mg/kg/day). Arthritis scores for four limbs for each mouse were determined starting from Day 21. Specifically, the total score of four limbs of a mouse was designated as the individual arthritis score (12 points at a maximum per mouse) based on the following: score 0: no change; score 1: swelling of 1 or 2 digit joints or mild swelling of the carpal region/the ankle region alone; score 2: swelling of joints of at least 3 digits or obvious swelling of the carpal region/the ankle region; and score 3: obvious swelling over forelimbs or hindlimbs.

[3] = test system: THP-1 cells; experiment: Antibody-dependent phagocytosis assay; type: cell-based; details: Homo sapiens; THP-1 cells induced to differentiate with IFNγ; opsonized Escherichia coli; Table 23; read-out: IC50 upon phagocytosis inhibition
Description: THP-1 cells (2×10^5 cells/ml) which are human monocyte-like cell line were cultured in the presence of 10 ng/ml IFNγ for 2 days, so that the cells were induced to differentiate into macrophage-like cells. THP-1 cells that had been induced to differentiate were collected. The cells (5×10^4 cells/well) were reacted with test compounds having given concentrations at room temperature for 30 minutes. Thereafter, Escherichia coli (Life Technologies) labeled with a pH-sensitive dye (pHrodo) was subjected to opsonization using an anti-Escherichia coli antibody (Molecular Probes). Then, the resultant was added to THP-1 cells mixed with test compounds that had been induced to differentiate, followed by incubation at 37° C. for 3 hours. At the time of addition of opsonized Escherichia coli, cell-permeable fluorescent dye (Calcein AM) were simultaneously added thereto, and phagocytosis of opsonized Escherichia coli in viable cells was quantitatively determined using an IN Cell Analyzer.
In addition, the following are used in Table 23 to denote standards for evaluating IC50 upon phagocytosis inhibition. • A: Up to 1 μM • B: 1 to 3 μM • C: 3 to 6 μM

[4] = test system: THP-1 cells; experiment: TNFα generation assay; type: cell-based, human; details: Homo sapiens, THP-1, THP-1 cells; Table 22; read-out: IC50 in TNFα generation assay
Outline: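 Secreted TNFα in supernatant quantified by ELISA or AlphaLISA after 7 h culture on human IgG-coated wells (10 μg/ml coating). Cells were IFN-γ-differentiated THP-1 (10 ng/ml, 2 days), exposed to compound for 30 min at room temperature before plating.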

[5] = biological target: T1, glutathione S-transferase (GST)-fused full-length human Syk protein (Homo sapiens, UniProt P43405); experiment: Syk enzyme assay; type: biochemical; details: Syk enzyme assay, Test Example 1; read-out: IC50 of Syk-inhibitory activity
T1 construct: (GST)-fused full-length human Syk protein; GST (glutathione S-transferase); purchased Carna Biosciences
Outline: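 IC50 values come from a time-resolved FRET readout (615 and 665 nm) of substrate phosphorylation, measured after an EDTA stop and 1 h antibody binding. The kinase reaction ran 40 min at room temperature with 27 μM ATP and 0.4 μM biotin-peptide, following a 15 min compound preincubation with baculovirus-made GST-full-length human Syk.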

| SMILES | inhibition in vivo at 10 mg/kg/day [1] | advancement of arthritis after the onset (arthritis score) [2] | IC50 [3] | IC50 [4] | IC50 [5] |
| --- | --- | --- | --- | --- | --- |
| Cc1ccc(Nc2nc(N[C@@H]3CCCC[C@@H]3N)c(F)cc2C(N)=O)cn1 (relative stereo) [Example 4-17, 6-(cis-2-aminocyclohexylamino)-5-fluoro-2-(6-methylpyridin-3-ylamino)nicotinamide] | ≥ 85% | strongly inhibited | – | – | – |
| CC(C)C[C@H](CN)Nc1nc(Nc2ccc3ncccc3c2)c(C(N)=O)cc1F [Example 6-117, (R)-6-((1-amino-4-methylpentan-2-yl)amino)-5-fluoro-2-((quinolin-6-yl)amino)nicotinamide] | ≥ 85% | – | – | – | – |
| CCC[C@@H](Nc1nc(Nc2ccnc(OC)c2)c(C(N)=O)cc1F)[C@H](C)N [Example 6-249, 6-(((2S,3R)-2-aminohexane-3-yl)amino)-5-fluoro-2-((2-methoxypyridin-4-yl)amino)nicotinamide] | ≥ 85% | – | – | – | – |
| CCCOc1cc(Nc2nc(N[C@H](CCC)[C@H](C)N)c(F)cc2C(N)=O)ccn1 [Example 006-311, 6-(((2S,3R)-2-aminohexan-3-yl)amino)-5-fluoro-2-((2-propoxypyridin-4-yl)amino)nicotinamide] | – | – | 1000 to 3000 nM | 65 to 130 nM | < 10 nM |
| CCn1ncc2cc(Nc3nc(N[C@@H](CN)CC(C)C)c(F)cc3C(N)=O)ccc21 [Example 006-322, (R)-6-((1-amino-4-methylpentan-2-yl)amino)-2-((1-ethyl-1H-indazol-5-yl)amino)-5-fluoronicotinamide] | – | – | < 1000 nM | < 65 nM | < 10 nM |
| CCn1ncc2cc(Nc3nc(N[C@@H](CN)CC(C)C)c(F)cc3C(N)=O)ccc21 [Example 6-322, (R)-6-((1-amino-4-methylpentan-2-yl)amino)-2-((1-ethyl-1H-indazol-5-yl)amino)-5-fluoronicotinamide] | ≥ 85% | – | – | – | – |
| CCn1ncc2cc(Nc3nc(N[C@H](CC4CC4)[C@H](C)N)c(F)cc3C(N)=O)ccc21 [Example 006-342, 6-(((2R,3S)-3-amino-1-cyclopropylbutan-2-yl)amino)-2-((1-ethyl-1H-indazol-5-yl)amino)-5-fluoronicotinamide] | – | – | 1000 to 3000 nM | < 65 nM | < 10 nM |
| C[C@H](N)[C@H](Nc1nc(Nc2ccc3ncccc3c2)c(C(N)=O)cc1F)C1CC1 [Example 006-368, 6-(((1R,2S)-2-amino-1-cyclopropylpropyl)amino)-5-fluoro-2-((quinolin-6-yl)amino)nicotinamide] | – | – | < 1000 nM | < 65 nM | < 10 nM |
| Cc1ncc(Nc2nc(N[C@@H]3CCCC[C@@H]3N)c(F)cc2C(N)=O)cc1-n1nccn1 [Example 006-375, 6-(((1R,2S)-2-aminocyclohexyl)amino)-5-fluoro-2-((6-methyl-5-(2H-1,2,3-triazol-2-yl)pyridin-3-yl)amino)nicotinamide] | – | – | 1000 to 3000 nM | 65 to 130 nM | < 10 nM |
| Cc1ncc(Nc2nc(N[C@@H]3CCCC[C@@H]3N)c(F)cc2C(N)=O)cc1-n1nccn1 [Example 6-375, 6-(((1R,2S)-2-aminocyclohexyl)amino)-5-fluoro-2-((6-methyl-5-(2H-1,2,3-triazol-2-yl)pyridin-3-yl)amino)nicotinamide] | ≥ 85% | – | – | – | – |
| Cc1ncc(Nc2nc(N[C@@H]3CCCC[C@@H]3N)c(F)cc2C(N)=O)cc1-c1ccco1 [Example 006-376, 6-(((1R,2S)-2-aminocyclohexyl)amino)-5-fluoro-2-((5-(furan-2-yl)-6-methylpyridin-3-yl)amino)nicotinamide] | – | – | 1000 to 3000 nM | < 65 nM | < 10 nM |
| COc1ncc(Nc2nc(N[C@@H]3CCCC[C@@H]3N)c(F)cc2C(N)=O)cc1-n1nccn1 [Example 006-377, 6-(((1R,2S)-2-aminocyclohexyl)amino)-5-fluoro-2-((6-methoxy-5-(2H-1,2,3-triazol-2-yl)pyridin-3-yl)amino)nicotinamide] | – | – | 1000 to 3000 nM | < 65 nM | < 10 nM |
| CC(C)C[C@@H](Nc1nc(Nc2ccc3c(cnn3C)c2)c(C(N)=O)cc1F)[C@H](C)N [Example 006-383, 6-(((2S,3R)-2-amino-5-methylhexan-3-yl)amino)-5-fluoro-2-((1-methyl-1H-indazol-5-yl)amino)nicotinamide] | – | – | 1000 to 3000 nM | < 65 nM | < 10 nM |
| CCn1ncc2cc(Nc3nc(N[C@H](CC(C)C)[C@H](C)N)c(F)cc3C(N)=O)ccc21 [Example 006-384, 6-(((2S,3R)-2-amino-5-methylhexan-3-yl)amino)-2-((1-ethyl-1H-indazol-5-yl)amino)-5-fluoronicotinamide] | – | – | < 1000 nM | < 65 nM | < 10 nM |
| NC(=O)c1cc(F)c(N[C@@H]2CCCC[C@@H]2N)nc1Nc1cnc(N2CCOCC2)c(F)c1 [Example 006-395, 6-(((1R,2S)-2-aminocyclohexyl)amino)-5-fluoro-2-((5-fluoro-6-morpholinopyridin-3-yl)amino)nicotinamide] | – | – | 1000 to 3000 nM | 65 to 130 nM | 10 to 50 nM |
| NC(=O)c1cc(F)c(N[C@@H]2CCCC[C@@H]2N)nc1Nc1cnc(N2CCOCC2)c(F)c1 [Example 6-395, 6-(((1R,2S)-2-aminocyclohexyl)amino)-5-fluoro-2-((5-fluoro-6-morpholinopyridin-3-yl)amino)nicotinamide] | ≥ 85% | – | – | – | – |
| CCOc1nccc(Nc2nc(N[C@@H]3CCCC[C@@H]3N)c(F)cc2C(N)=O)c1F [Example 006-433, 6-(((1R,2S)-2-aminocyclohexyl)amino)-2-((2-ethoxy-3-fluoropyridin-4-yl)amino)-5-fluoronicotinamide] | – | – | 1000 to 3000 nM | 65 to 130 nM | < 10 nM |
| COC[C@@H](Nc1nc(Nc2ccc3ncccc3c2)c(C(N)=O)cc1F)[C@H](C)N [Example 006-468, 6-(((2S,3S)-3-amino-1-methoxybutan-2-yl)amino)-5-fluoro-2-((quinolin-6-yl)amino)nicotinamide] | – | – | < 1000 nM | < 65 nM | < 10 nM |
| NC(=O)c1cc(F)c(NC2CCCCC2N)nc1Nc1ccc2ncccc2c1 (stereo not shown) [Example 008-006] | – | – | < 1000 nM | < 65 nM | < 10 nM |
| NC(=O)c1cc(F)c(N[C@@H](C(N)=O)c2ccccc2)nc1Nc1ccc2ncccc2c1 [Example 012-008] | – | – | 1000 to 3000 nM | 65 to 130 nM | 10 to 50 nM |
| CCC(N)CNc1nc(Nc2ccc3ncccc3c2)c(C(N)=O)cc1F (stereo not shown) [Example 014-001] | – | – | 1000 to 3000 nM | < 65 nM | < 10 nM |
